Measurements taken from patent publication US20070134709A1, “Usages of MTHFR gene polymorphisms in predicting homocysteine level, disease risk, and treatment effects and related methods and kit” (priority 2005, published 2007).
One block for each molecule: values may come before it.

Key:
hypertensive patients [1] = conditions: oral, single daily fixed dosage of 10 mg; 444 hypertensive patients; cited from earlier work
hypertensive patients [2] = assay: Change in plasma Hcy level after 57 days' treatment, hypertensive patients grouped by MTHFR A1298C genotype; type: in vivo, human; conditions: for β(SE) of change in Hcy level: adjusted for sex, age, BMI, smoking, drinking, baseline Hcy; for Mean change in Hcy level: plasma, Day 57 − Day 0
Description: In our clinical epidemiology study, we classified hypertensive patients into 1298AA, 1298AC, and 1298CC groups based on the genotype of MTHFR A1298C polymorphism. Each subject was treated with ACEI medicine alone or combined with folate for 57 consecutive days. Pre-treatment and post-treatment plasma Hcy level, blood pressure (SBP/DBP), and urine albumin were measured.

subjects = assay: Liver injury as change in liver enzymes (ALT, AST) after 57 days' treatment, subjects grouped by MTHFR C677T genotype; type: in vivo, human; conditions: for Significant change in ALT (number of subjects): (ALT day 57-ALT day 0)/ALT day 0>15%
Description: In our clinical epidemiology study, we classified subjects into 677CC, 677CT, and 677TT groups based on the MTHFR C677T genotype. Each subject was treated with ENAZEPRIL alone or combined with folate for 57 consecutive days. Pre-treatment and post-treatment liver enzymes (ALT and AST) were measured. The MTHFR C677T polymorphism can affect the degree of liver injury induced by ACEI medicine combined with folate. […] Remarkably, given the combination therapy, Subjects with MTHFR 677CC genotype tend to have greater increase in ALT and AST, but subjects with MTHFR 677TT genotype tend to have less increase in ALT and AST. Subjects with MTHFR 677CT genotype fell in-between.
In our clinical epidemiology study, we classified subjects into 677CC, 677CT, and 677TT groups based on the MTHFR C677T genotype. Each subject was treated with ENAZEPRIL alone or combined with folate for 57 consecutive days. Pre-treatment and post-treatment liver enzymes (ALT and AST) were measured.

[3] = cited from earlier work
hypertensive subjects = assay: Change in plasma Hcy level after 57 days' treatment, hypertensive subjects grouped by MTHFR C677T genotype; type: in vivo, human; conditions: for Significant change in Hcy (number of subjects): (day 57 − day 0)/day 0 ≧10%; for Non-significant change in Hcy (number of subjects): relative change below 10; for β(SE) of change in Hcy level: multiple linear regression adjusted for sex, age, BMI, smoking, drinking, baseline Hcy; for Mean change in Hcy level: plasma, Day 57 − Day 0
Description: We conducted a clinical epidemiology study, in which we classified hypertensive subjects into 677CC, 677CT, and 677TT groups based on the genotypes of MTHFR C677T polymorphism. Each subject was treated with Enalapril alone or combined with folate for 57 consecutive days. Pre-treatment and post-treatment plasma Hcy level, blood pressure (SBP/DBP), and urine albumin were measured. The major findings are summarized as follow. […]

[4] = target: angiotensin converting enzyme I (Homo sapiens, UniProt P12821); conditions: cited from earlier work
Sequence of angiotensin converting enzyme I (P12821 30-1306): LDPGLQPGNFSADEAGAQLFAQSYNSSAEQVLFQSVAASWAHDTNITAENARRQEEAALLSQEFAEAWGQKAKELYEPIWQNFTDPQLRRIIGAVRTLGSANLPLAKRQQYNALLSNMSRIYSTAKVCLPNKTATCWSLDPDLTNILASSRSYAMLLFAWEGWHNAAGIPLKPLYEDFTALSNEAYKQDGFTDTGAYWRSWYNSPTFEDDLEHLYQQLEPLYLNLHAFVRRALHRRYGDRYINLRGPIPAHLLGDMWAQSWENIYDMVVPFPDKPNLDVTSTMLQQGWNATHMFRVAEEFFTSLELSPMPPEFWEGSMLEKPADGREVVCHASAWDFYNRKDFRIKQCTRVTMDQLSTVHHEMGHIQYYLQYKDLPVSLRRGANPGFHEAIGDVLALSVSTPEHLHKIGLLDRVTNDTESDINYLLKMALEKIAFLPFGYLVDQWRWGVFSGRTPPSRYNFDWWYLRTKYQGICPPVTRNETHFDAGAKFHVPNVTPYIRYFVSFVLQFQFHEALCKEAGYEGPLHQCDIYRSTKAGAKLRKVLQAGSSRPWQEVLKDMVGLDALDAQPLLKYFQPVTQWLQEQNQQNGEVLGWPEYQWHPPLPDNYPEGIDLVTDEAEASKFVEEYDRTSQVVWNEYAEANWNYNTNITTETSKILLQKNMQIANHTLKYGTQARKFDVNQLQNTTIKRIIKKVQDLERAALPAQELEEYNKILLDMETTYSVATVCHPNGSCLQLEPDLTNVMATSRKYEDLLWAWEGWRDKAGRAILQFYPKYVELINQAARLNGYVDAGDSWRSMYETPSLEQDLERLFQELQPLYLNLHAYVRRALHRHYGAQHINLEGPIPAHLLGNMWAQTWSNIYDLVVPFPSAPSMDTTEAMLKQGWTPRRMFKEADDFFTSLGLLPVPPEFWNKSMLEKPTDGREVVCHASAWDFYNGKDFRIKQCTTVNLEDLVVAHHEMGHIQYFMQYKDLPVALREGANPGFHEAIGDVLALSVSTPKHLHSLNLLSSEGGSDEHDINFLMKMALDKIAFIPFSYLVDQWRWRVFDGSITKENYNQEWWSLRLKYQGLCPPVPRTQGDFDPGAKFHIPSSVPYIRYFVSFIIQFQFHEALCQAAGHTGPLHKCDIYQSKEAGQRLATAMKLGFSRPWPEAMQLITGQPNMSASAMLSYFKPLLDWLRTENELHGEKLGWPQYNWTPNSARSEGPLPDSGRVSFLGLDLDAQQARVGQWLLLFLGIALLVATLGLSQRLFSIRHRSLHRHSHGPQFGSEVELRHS

[5] = Table 19, 677CC, day 57 minus day 0
[6] = Table 19, 677CT, day 57 minus day 0
[7] = Table 19, 677TT, day 57 minus day 0

SMILES: CCOC(=O)[C@H](CCc1ccccc1)N[C@H]1CCc2ccccc2N(CC(=O)O)C1=O [Benazepril]
Change in diastolic blood pressure, TT genotype vs CT or CC genotype (hypertensive patients [1]): significantly higher

β(SE) of change in Hcy level (hypertensive patients [2]; 1298AA vs 1298CC): 2.3 (1.8)
β(SE) of change in Hcy level (hypertensive patients [2]; 1298AC vs 1298CC): 0.2 (1.5)
Mean change in Hcy level (hypertensive patients [2]; MTHFR 1298AA): 3.0 µmol/L
Mean change in Hcy level (hypertensive patients [2]; MTHFR 1298AC): 1.2 µmol/L
Mean change in Hcy level (hypertensive patients [2]; MTHFR 1298CC): 1.1 µmol/L
SMILES: CCOC(=O)[C@H](CCc1ccccc1)N[C@@H](C)C(=O)N1CCC[C@H]1C(=O)O [ENAZEPRIL]
Plasma Hcy level after treatment (hypertensive patients [2]; ENAZEPRIL alone for 57 days): significantly increased level of plasma Hcy
Insignificant change in ALT (number of subjects) (subjects; 677CC): 20
Significant change in ALT (number of subjects) (subjects; 677CC): 32
Insignificant change in ALT (number of subjects) (subjects; 677TT): 34
Significant change in ALT (number of subjects) (subjects; 677TT): 14
Mean change in ALT (subjects; [5]): 13.8 U/L
Mean change in AST (subjects; [5]): 7.1 U/L
Mean change in ALT (subjects; [6]): 10.1 U/L
Mean change in AST (subjects; [6]): 5.2 U/L
Mean change in ALT (subjects; [7]): 7.3 U/L
Mean change in AST (subjects; [7]): 0.3 U/L
Mean change in ALT (subjects; Table 20, 677CC, Day57 − Day0): 17.92 U/L
Mean change in AST (subjects; Table 20, 677CC, Day57 − Day0): 4.95 U/L
Mean change in ALT (subjects; Table 20, 677CT, Day57 − Day0): 10.15 U/L
Mean change in AST (subjects; Table 20, 677CT, Day57 − Day0): 5.81 U/L
Mean change in ALT (subjects; Table 20, 677TT, Day57 − Day0): 9.4 U/L
Mean change in AST (subjects; Table 20, 677TT, Day57 − Day0): 0.08 U/L
Insignificant change in ALT (number of subjects) (subjects; Total (CC and TT)): 54
Significant change in ALT (number of subjects) (subjects; Total (CC and TT)): 46
Increase in ALT and AST (subjects; subjects with MTHFR 677CC genotype, Enazepril alone): greatest increase in ALT and AST

Significant change in Hcy (number of subjects) (hypertensive subjects; 677CC + CT): 12
Non-significant change in Hcy (number of subjects) (hypertensive subjects; 677CC + CT): 39
Subjects with significant change in Hcy level (hypertensive subjects; 677CT or CC): 23.3%
β(SE) of change in Hcy level (hypertensive subjects; 677CT vs 677CC): 0.7 (1.3)
Subjects with significant change in Hcy level (hypertensive subjects; 677TT genotype): 38.5%
β(SE) of change in Hcy level (hypertensive subjects; 677TT vs 677CC): 3.9 (1.3)
Significant change in Hcy (number of subjects) (hypertensive subjects; 677TT): 10
Non-significant change in Hcy (number of subjects) (hypertensive subjects; 677TT): 16
Plasma Hcy level after treatment (hypertensive subjects; Enalapril alone for 57 days): increased level of plasma Hcy
Mean change in Hcy level (hypertensive subjects; MTHFR 677CC): -0.5 µmol/L
Mean change in Hcy level (hypertensive subjects; MTHFR 677CT): 1.2 µmol/L
Mean change in Hcy level (hypertensive subjects; MTHFR 677TT): 2.7 µmol/L
Significant change in Hcy (number of subjects) (hypertensive subjects; Total, all genotypes): 22
Non-significant change in Hcy (number of subjects) (hypertensive subjects; Total, all genotypes): 55
Subjects with significant change in Hcy level (hypertensive subjects; overall (22/77)): 28.6%
SMILES: CCOC(=O)[C@H](CCc1ccccc1)N[C@@H](C)C(=O)N1CCC[C@H]1C(=O)O [ENALAPRIL, Enalapril]
Half-time ([3]; in vivo): 11 h
Duration of blood pressure lowering effect ([3]; regular dosage): more than 24 hours

SMILES: C[C@H](N[C@@H](CCc1ccccc1)C(=O)O)C(=O)N1CCC[C@H]1C(=O)O [Enalaprilat]
Inhibition of angiotensin converting enzyme I compared with enalapril [4]: powerful effect on inhibiting angiotensin converting enzyme I than enalapril
